{
  "source": "patent US7501281B2",
  "about": "“Compositions, methods and kits related to thrombin, Notch signaling and stamatogenesis and growth of stem cells” (Maine Medical Center Research Institute, priority 2003, dated 2009)",
  "key": {"[1]": {"tested_on": "NSC populations", "experiment": "Clonal expansion of NSC on NIH 3T3 transfectant feeder layer", "format": "cell-based"}, "[2]": {"target": "T1, human Jagged1 (Homo sapiens, UniProt P78504, A1171G)", "T1 construct": "full-length Jagged1 was in vitro transcribed and translated; made in house; host or cells: cell-free: T7-coupled reticulocyte lysate in vitro transcription/translation system (Promega)", "T1 sequence (P78504 34-1218 A1171G)": "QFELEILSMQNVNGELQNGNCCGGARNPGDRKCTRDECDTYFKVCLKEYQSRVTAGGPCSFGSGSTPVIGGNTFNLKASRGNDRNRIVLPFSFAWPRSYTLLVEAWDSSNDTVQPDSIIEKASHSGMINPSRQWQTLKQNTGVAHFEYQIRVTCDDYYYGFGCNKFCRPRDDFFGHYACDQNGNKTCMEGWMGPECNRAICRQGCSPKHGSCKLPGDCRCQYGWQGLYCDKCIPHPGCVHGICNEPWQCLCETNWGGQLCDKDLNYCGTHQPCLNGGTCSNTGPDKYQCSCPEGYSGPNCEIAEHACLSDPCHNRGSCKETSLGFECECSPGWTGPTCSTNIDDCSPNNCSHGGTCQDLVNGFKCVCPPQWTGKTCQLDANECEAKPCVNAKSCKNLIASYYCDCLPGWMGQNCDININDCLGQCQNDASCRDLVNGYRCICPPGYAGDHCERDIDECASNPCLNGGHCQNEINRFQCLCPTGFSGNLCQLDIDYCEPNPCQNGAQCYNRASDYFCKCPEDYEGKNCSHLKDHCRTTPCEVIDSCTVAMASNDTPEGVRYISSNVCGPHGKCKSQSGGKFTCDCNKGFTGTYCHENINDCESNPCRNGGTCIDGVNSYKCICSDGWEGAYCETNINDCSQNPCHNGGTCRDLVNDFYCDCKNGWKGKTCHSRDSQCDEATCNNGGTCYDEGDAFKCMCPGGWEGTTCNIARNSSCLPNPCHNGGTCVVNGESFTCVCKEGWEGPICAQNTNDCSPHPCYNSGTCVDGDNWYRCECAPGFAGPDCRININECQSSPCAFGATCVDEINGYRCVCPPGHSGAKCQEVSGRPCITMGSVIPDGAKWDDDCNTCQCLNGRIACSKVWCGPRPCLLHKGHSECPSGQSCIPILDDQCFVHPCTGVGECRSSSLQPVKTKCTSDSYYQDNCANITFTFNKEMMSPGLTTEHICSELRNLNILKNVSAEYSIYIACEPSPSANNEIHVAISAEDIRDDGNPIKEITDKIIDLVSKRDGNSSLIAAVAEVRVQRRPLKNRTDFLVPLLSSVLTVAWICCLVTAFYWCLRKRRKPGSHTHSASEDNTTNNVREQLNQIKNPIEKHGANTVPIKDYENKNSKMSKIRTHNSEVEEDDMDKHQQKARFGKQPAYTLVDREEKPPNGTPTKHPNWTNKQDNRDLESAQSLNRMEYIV", "experiment": "Thrombin cleavage of in vitro translated Jagged1 and Edman microsequencing", "format": "biochemical", "protocol": "A plasmid containing human Jagged1 (Zimrin et al., 1996, J. Biol. Chem. 271:32499-32502) was in vitro transcribed and in vitro translated in the presence of a (^35S)-Met/Cys protein-labeling mixture (Amersham) using the T7-coupled reticulocyte lysate system according to the manufacturer's instructions (Promega) in a total volume of 50 μl. After 60 minutes incubation at 30° C., 0.05% DTT was added, half of the reaction mixture incubated with 10 μg α-thrombin for 15 minutes at 37° C., and the reaction stopped by boiling in the presence of SDS-PAGE sample buffer. The samples were resolved by 12% SDS-PAGE, transferred to a nitrocellulose membrane, and analyzed by autoradiography. […] The products of each cycle were collected prior to resolution by HPLC, added to liquid scintillation fluid (Beckman) and the (^35S) samples quantitated by liquid scintillation spectroscopy (Beckman).\nIn an attempt to further define this pathway and the role that sJ1 might play in the regulation of cell proliferation, it was assessed if the Jagged1 translation product was susceptible to proteolytic cleavage by thrombin. […] The Jagged1 transcript was translated in vitro in the presence of (^35S)-Cys, resolved by SDS-PAGE, the 95 kDa fragment excised, subjected to automated Edman chemistry and the products of each cycle monitored by liquid scintillation spectroscopy. […]"}, "[3]": {"tested_on": "FGF1 transcript in NIH 3T3 and Swiss 3T3 cells", "experiment": "Nuclear run-on analysis of FGF1 transcription", "format": "cell-based, murine", "protocol": "Approximately either 1×10^7 Swiss or NIH 3T3 cells were harvested and washed using ice-cold 50 mM sodium phosphate buffer, pH 7.0 containing 15 mM NaCl. Cell pellets were lysed in 4 ml of ice-cold 10 mM Tris-HCl, pH 7.5, containing 3 mM CaCl2, 3 mM MgCl2, 10 mM NaCl, and 0.5% NP-40. The nuclear pellet was resuspended in glycerol storage buffer (50 mM Tris-HCl, pH 8.3 containing 40% glycerol, 5 mM MgCl2 and 0.1 mM EDTA), the nuclei were snap frozen, and stored in liquid nitrogen. For run-on transcription, 200 μl aliquots of the frozen nuclei were added to 200 μl of reaction buffer (10 mM Tris-HCl, pH 8.3 containing 5 mM MgCl2, 300 mM KCl, 5 mM DTT, 1 mM each of ATP, CTP, and GTP, 40 units of RNase inhibitor and 100 μCi of [^32P]UTP (800 Ci/mmol; Amersham), and incubated at 30° C. for 30 minutes. The mixture was treated with 100 units of RNase-free DNase I for 30 minutes at 30° C. and then incubated with 400 μl of 20 mM Tris-HCl, pH 7.5, containing 2% SDS, 10 mM EDTA, […] proteinase K for 30 minutes at 42° C. Following phenol/CHCl3 extraction, the labelled transcripts were precipitated with isopropanol and dissolved in 50 μl of 10 mM TES, pH 7.5, containing 10 mM EDTA and 0.2% SDS. Linearized plasmid constructs (0.4 μg/dot) containing either the fgfl or gapdh cDNA were alkali denatured and immobilized onto a Hybond-N^+ membrane (Amersham). Hybridization was performed in 1 ml of ULTRA Hyb (Ambion), with 5×10^6 cpm of radiolabeled RNA and yeast RNA (10 μg/ml) for 18 hours with shaking at 50° C. Membranes were washed twice with washing buffer (2×SSC containing 0.1% SDS) at 50° C. and analyzed using a phosphoimager (Molecular Dynamics)."}, "[4]": {"target": "T2, Delta1 (Homo sapiens, UniProt O00548)", "T2 construct": "made in house", "T2 sequence (O00548 18-723)": "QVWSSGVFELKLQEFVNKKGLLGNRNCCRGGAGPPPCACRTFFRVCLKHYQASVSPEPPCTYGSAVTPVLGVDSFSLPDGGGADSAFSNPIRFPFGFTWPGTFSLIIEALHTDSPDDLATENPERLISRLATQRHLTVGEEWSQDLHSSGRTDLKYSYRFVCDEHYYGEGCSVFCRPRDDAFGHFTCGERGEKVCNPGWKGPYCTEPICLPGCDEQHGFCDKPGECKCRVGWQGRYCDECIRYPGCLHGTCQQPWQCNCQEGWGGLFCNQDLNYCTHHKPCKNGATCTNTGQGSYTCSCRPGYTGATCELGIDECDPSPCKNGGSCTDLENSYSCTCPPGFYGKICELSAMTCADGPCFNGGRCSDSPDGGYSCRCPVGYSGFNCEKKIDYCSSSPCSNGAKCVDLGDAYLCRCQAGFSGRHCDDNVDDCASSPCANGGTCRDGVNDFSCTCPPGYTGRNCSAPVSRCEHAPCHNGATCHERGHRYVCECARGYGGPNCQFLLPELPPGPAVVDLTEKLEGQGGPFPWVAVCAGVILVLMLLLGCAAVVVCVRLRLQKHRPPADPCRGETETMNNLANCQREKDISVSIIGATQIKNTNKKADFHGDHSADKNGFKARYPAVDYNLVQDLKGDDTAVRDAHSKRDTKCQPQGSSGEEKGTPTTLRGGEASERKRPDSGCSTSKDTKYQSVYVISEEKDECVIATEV", "experiment": "Thrombin cleavage of in vitro translation product of Delta1", "format": "biochemical"}},
  "data": [
    {"substance": "Thrombin", "values": [
      {"measurement": "effect on size of NSC colonies", "setting": "[1]; full-length Delta1 NIH 3T3 cell transfectant feeder layer", "value": "failed to induce"},
      {"measurement": "effect on size of NSC colonies", "setting": "[1]; full-length Jagged1 NIH 3T3 cell transfectant feeder layer, 5 μg/ml thrombin", "value": "exaggeration of the size of the NSC colonies"},
      {"measurement": "Jagged1 cleavage site", "setting": "[2]; Edman microsequencing of the 95 kDa fragment", "value": "between residues R348 and G349"},
      {"measurement": "cleavage products of the 134 kDa Jagged1 translation product", "setting": "[2]; α-thrombin 15 minutes at 37° C.", "value": "cleavage of the full-length Jagged1 protein into 39 kDa and 95 kDa fragments"},
      {"measurement": "induction of FGF1 transcript", "setting": "[3]; 10 μg/ml α-thrombin or 5 μM TRAP", "value": "able to induce"},
      {"measurement": "time at which FGF1 mRNA was initially detected", "setting": "[3]; after addition of thrombin", "value": 15, "unit": "min"},
      {"measurement": "time to plateau of FGF1 mRNA", "setting": "[3]; after addition of thrombin", "value": "≤ 2", "unit": "h"},
      {"measurement": "proteolytic modification of Delta1 translation product", "setting": "[4]", "value": "unable to proteolytically modify"}
    ]}
  ]
}
